Data published in patent publication US20260028384A1, “USE OF IL-2 VARIANT FOR TREATING KIDNEY TRANSPLANT REJECTION” (Visterra, Inc., priority 2024, published 2026).
Entries after “also recorded” stand apart in the source; their conditions may differ.

Experiments:
kidney allograft [1] = assay: Kidney allograft survival after transplant and discontinuation of treatment, rapamycin discontinued on Day 30 (Example 3); format: in vivo, Rhesus monkeys
From the text: However, rapamycin administration was discontinued on Day 30 post-transplant. A control group was only administered the daily rapamycin.

[2] = system: regulatory T cells (Tregs); assay: Immunomodulatory effect (Treg expansion) in naïve Rhesus monkeys, flow cytometry; format: in vivo
Protocol: An exemplary alpha-biased IL-2 variant fused to an Fc domain of human IgG1 was prepared with a full length sequence according to SEQ ID NO: 27. The immunomodulatory effect of the exemplary alpha-biased IL-2-Fc fusion protein was assessed in naïve Rhesus monkeys by a study outlined in FIG. 1A. […] Rapamycin was also administered daily from Day 0 by intramuscular injections, targeting a trough level of approximately 8-12 ng/mL. Treg populations (CD4^+CD25^+FoxP3^+ and CD4^+CD25^+CD127^lo) and other immune cell populations including CD3^+/CD8^+ cytotoxic T cells (CTL) were analyzed using flow cytometry.

kidney allograft [3] = system: kidney allograft
From the text: The effect of an exemplary alpha-biased IL-2-Fc fusion protein (SEQ ID NO: 27) on prolonged kidney allograft survival following transplant was studied in naïve Rhesus monkeys, as outlined in FIG. 1B. For the kidney transplant, animals were paired with ABO-compatible donors and mismatched for MHC haplotype of class I loci while allowing 1 or 2 MHC II haplotype matching. This degree of MHC mismatch is known to elicit a robust graft rejection and sensitization.
The alpha-biased IL-2-Fc fusion protein was administered subcutaneously at a dose of 50 μg/kg both pre- and post-transplant on Days −6, 1, 15, and 29. The kidney transplant was performed on Day 0, and rapamycin was administered daily by intramuscular injection, targeting a trough concentration of approximately 8-12 ng/mL. Rapamycin administration was discontinued on Day […] post-transplant. As a control, five monkeys were only administered the daily rapamycin. Kidney allograft biopsies were performed at 1-month and 3-months post-transplant. Blood samples were collected regularly, and samples were either analyzed at ambient temperature or frozen and stored.

Row | Compound | time to termination post-transplant (increases in sCR and BUN or excessive weight loss) (kidney allograft [1]; control group, daily rapamycin only, FIG. 10B) | percent of Tregs (CD4+CD25+FoxP3+) ([2]; 5-7 days after administration, increased from 6.21% pre-treatment, s.c. 50 or 100 μg/kg with daily rapamycin, FIG. 2A) | tachyphylaxis of Treg number and percent on repeated dosing ([2]; FIGS. 3A and 3B, after each dose) | cytotoxic T cells (CTLs) during the increase in Tregs ([2]; over the course of treatment) | ratio of Tregs:CD8 cells ([2]; over the course of treatment, 50 or 100 μg/kg, FIG. 2B) | absolute number of Tregs ([2]; over the course of treatment, s.c. Days 0, 14, 28 at 50 or 100 μg/kg, daily rapamycin, FIG. 2B) | survival post-transplant, one Rhesus monkey (kidney allograft [3]; 50 μg/kg plus daily rapamycin until Day 180, longest surviving monkey) | kidney graft survival, at least three of four Rhesus monkeys (kidney allograft [3]; 50 μg/kg plus daily rapamycin, at least three of four monkeys) | time creatinine and BUN / transplanted kidney stable post-transplant, some cases (kidney allograft [3]; 50 μg/kg s.c. Days −6, 1, 15, 29 plus daily rapamycin until Day 180, some cases) | time creatinine and blood urea nitrogen (BUN) stable post-transplant, most cases (kidney allograft [3]; 50 μg/kg s.c. Days −6, 1, 15, 29 plus daily rapamycin, most cases, FIGS. 4A, 4B) | Tregs (FoxP3+ CD4+ and CD127lo CD4+) in PBMCs (kidney allograft [3]; after administration, post-transplant, FIG. 8) | CD20+ B cells (kidney allograft [3]; after kidney transplant, FIG. 5) | histopathology of monkey terminated early for excessive body weight loss (kidney allograft [3]; one monkey of the fusion protein group) | blood chemistry parameters (ALT, ALP, GGT, bilirubin, protein, albumin, globulin, cholesterol, phosphate, calcium, glucose, sodium, potassium, chloride) (kidney allograft [3]; rhesus monkey, in vivo) | hematology parameters (hemoglobin, hematocrit, blood cell counts) (kidney allograft [3]; rhesus monkey, in vivo) | time sCR and BUN levels stable post-transplant, most cases (kidney allograft [1]; 50 μg/kg s.c. Days −6, 1, 15, 29 plus daily rapamycin until Day 30, most cases, FIG. 10A) | time sCR and BUN levels stable post-transplant, some cases (kidney allograft [1]; rapamycin discontinued Day 30, some cases) | time sCR and BUN levels stable following complete withdrawal of immunosuppressive drugs (kidney allograft [1]; some cases)
1 | CO[C@H]1C[C@@H]2CC[C@@H](C)[C@@](O)(O2)C(=O)C(=O)N2CCCC[C@H]2C(=O)O[C@H]([C@H](C)C[C@@H]2CC[C@@H](O)[C@H](OC)C2)CC(=O)[C@H](C)/C=C(\C)[C@@H](O)[C@@H](OC)C(=O)[C@H](C)C[C@H](C)/C=C/C=C/C=C/1C [rapamycin, reference compound] | less than 30 days | – | – | – | – | – | – | – | – | – | – | – | – | – | – | – | – | –
2 | alpha-biased IL-2-Fc fusion protein: IL2 Variant (H16L/V69A/Q74P/C125S) fused to IgG1 Fc (N297G) allotype m3; full length sequence SEQ ID NO: 27 | – | 38.5% | without signs of tachyphylaxis | did not coincide with an increase | significantly increased in a dose-dependent manner | significantly increased in a dose-dependent manner; also recorded: statistically significant and dose dependent | 235 days | over 50 days | over 235 days | over 50 days | increase in both percent and number | decrease | did not indicate kidney rejection | fell within the expected range | normally fell within their expected ranges | at least 40 days | ≥ 110 days | up to 82 days
